Key:
[1] = Dialysis diffusion: effect of sample size; assay type: physicochemical
Description: (§1) Dialysis tubing cellulose membrane was cut into approximately 8 cm lengths, washed with hot water for 3 hours. Tubing was then treated with 0.3% (w/v) solution of sodium sulfide at 80° C. for 1 minute, washed with hot water (60° C.) for 2 minutes and followed by acidification with 0.2% sulfuric acid. Tubing was then rinsed with hot water to remove the acid. Test formulations were added, the tubing closed with nylon closures and placed in the dialysate. At various time periods, the dialysate was sampled and the flumazenil released measured by HPLC assay.
Experiments were conducted to test the influence of sample size on diffusion rate.
(§2) As described in 1.1 with 600 ml of phosphate buffer pH 4.0 as dialysate.
A=0.125 g of a 3% flumazenil solution in NMP
B=0.250 g of a 3% flumazenil solution in NMP
C=0.500 g of a 3% flumazenil solution in NMP

[2] = Dialysis diffusion: effect of concentration and sample size (same quantity of flumazenil); assay type: physicochemical
Description: as §1
Experiments were conducted to test the effect of different concentrations and different sample sizes (but same quantity of flumazenil) on diffusion rate.
as §2
(§3) A=0.25 g of a 1.5% flumazenil solution in NMP
B=0.125 g of a 3% flumazenil solution in NMP
C=0.083 g of a 4.5% flumazenil solution in NMP

[3] = Dialysis diffusion: effect of dialysate volume; assay type: physicochemical; details: 0.25 g of 3% solution in NMP
Description: Dissolution apparatus: Vankel VK 7000 (Agilent Technologies Australia)
Dialysis bags: dialysis tubing cellulose membrane from Sigma-Aldrich Australia—average flat width 25 mm, average diameter 16 mm (when full), retains >90% of cytocrome C (M.W. 12.400) in solution over a 10 hrs period.
as §1
Chromatography column: C18-250 mm×4.6 mm×5 μm (Sigma Aldrich Australia)
Mobile phase: H2O pH 2:methanol:tetrahydrofuran (80:13:7)
Injection volume: 10 μl and 100 μl
Experiments were conducted to check the influence of the volume of the dialysis medium (dialysate) on diffusion rate.
A=800 ml of phosphate buffer pH 4.0
B=600 ml of phosphate buffer pH 4.0
0.25 g of 3% flumazenil solution in N-Methyl-2-Pyrrolidinone (NMP)

methamphetamine cravings = details: clinical trials, along with hydroxyzine and gabapentin; cited from earlier work
[4] = Dialysis diffusion: effect of sample concentration; assay type: physicochemical
Description: as §1
Experiments were conducted to test the effect of sample concentration on diffusion rate.
as §2, §3
B=0.25 g of a 3.0% flumazenil solution in NMP
C=0.25 g of a 4.5% flumazenil solution in NMP

[5] = sample A1 (0.25 g of 1.5% solution in NMP), 1 h
[6] = sample A1 (0.25 g of 1.5% solution in NMP), 2 h
[7] = sample A1 (0.25 g of 1.5% solution in NMP), 3 h
[8] = sample A2 (0.25 g of 1.5% solution in NMP), 1 h
[9] = sample A2 (0.25 g of 1.5% solution in NMP), 2 h
[10] = sample A2 (0.25 g of 1.5% solution in NMP), 3 h
[11] = sample A (0.25 g of 1.5% solution in NMP)

CCOC(=O)c1ncn2c1CN(C)C(=O)c1cc(F)ccc1-2 [flumazenil, ethyl 8-fluoro-5,6-dihydro-5-methyl-6-oxo-4H-imidazo[1,5-a](1,4)benzodiazepine-3-carboxylate]
% flumazenil released ([1]; sample A1 (0.125 g of 3% solution in NMP), 1 h): 85.8%
% flumazenil released ([1]; sample A1 (0.125 g of 3% solution in NMP), 2 h): 94.9%
% flumazenil released ([1]; sample A1 (0.125 g of 3% solution in NMP), 4 h): 100.1%
% flumazenil released ([1]; sample A1 (0.125 g of 3% solution in NMP), 6 h): 101.8%
% flumazenil released ([1]; sample A1 (0.125 g of 3% solution in NMP), 24 h): 101.6%
% flumazenil released ([1]; sample A2 (0.125 g of 3% solution in NMP), 1 h): 77.9%
% flumazenil released ([1]; sample A2 (0.125 g of 3% solution in NMP), 2 h): 90.8%
% flumazenil released ([1]; sample A2 (0.125 g of 3% solution in NMP), 4 h): 99.1%
% flumazenil released ([1]; sample A2 (0.125 g of 3% solution in NMP), 6 h): 101.3%
% flumazenil released ([1]; sample A2 (0.125 g of 3% solution in NMP), 24 h): 102.0%
% flumazenil released ([1]; sample B1 (0.250 g of 3% solution in NMP), 1 h): 50.9%
% flumazenil released ([1]; sample B1 (0.250 g of 3% solution in NMP), 2 h): 64.7%
% flumazenil released ([1]; sample B1 (0.250 g of 3% solution in NMP), 4 h): 87.0%
% flumazenil released ([1]; sample B1 (0.250 g of 3% solution in NMP), 6 h): 96.3%
% flumazenil released ([1]; sample B1 (0.250 g of 3% solution in NMP), 24 h): 101.3%
% flumazenil released ([1]; sample B2 (0.250 g of 3% solution in NMP), 1 h): 50.9%
% flumazenil released ([1]; sample B2 (0.250 g of 3% solution in NMP), 2 h): 65.2%
% flumazenil released ([1]; sample B2 (0.250 g of 3% solution in NMP), 4 h): 87.6%
% flumazenil released ([1]; sample B2 (0.250 g of 3% solution in NMP), 6 h): 97.8%
% flumazenil released ([1]; sample B2 (0.250 g of 3% solution in NMP), 24 h): 101.3%
% flumazenil released ([1]; sample C1 (0.500 g of 3% solution in NMP), 1 h): 36.6%
% flumazenil released ([1]; sample C1 (0.500 g of 3% solution in NMP), 2 h): 45.5%
% flumazenil released ([1]; sample C1 (0.500 g of 3% solution in NMP), 4 h): 59.3%
% flumazenil released ([1]; sample C1 (0.500 g of 3% solution in NMP), 6 h): 70.4%
% flumazenil released ([1]; sample C1 (0.500 g of 3% solution in NMP), 24 h): 100.8%
% flumazenil released ([1]; sample C2 (0.500 g of 3% solution in NMP), 1 h): 46.5%
% flumazenil released ([1]; sample C2 (0.500 g of 3% solution in NMP), 2 h): 56.0%
% flumazenil released ([1]; sample C2 (0.500 g of 3% solution in NMP), 4 h): 71.1%
% flumazenil released ([1]; sample C2 (0.500 g of 3% solution in NMP), 6 h): 83.1%
% flumazenil released ([1]; sample C2 (0.500 g of 3% solution in NMP), 24 h): 101.0%
% flumazenil released [2, 5]: 91.0%
% flumazenil released [2, 6]: 100.3%
% flumazenil released [2, 7]: 101.0%
% flumazenil released ([2]; sample A1 (0.25 g of 1.5% solution in NMP), 4 h): 100.9%
% flumazenil released ([2]; sample A1 (0.25 g of 1.5% solution in NMP), 5 h): 101.0%
% flumazenil released ([2]; sample A1 (0.25 g of 1.5% solution in NMP), 6 h): 100.8%
% flumazenil released [2, 8]: 93.2%
% flumazenil released [2, 9]: 100.7%
% flumazenil released [2, 10]: 100.9%
% flumazenil released ([2]; sample A2 (0.25 g of 1.5% solution in NMP), 4 h): 101.0%
% flumazenil released ([2]; sample A2 (0.25 g of 1.5% solution in NMP), 5 h): 100.6%
% flumazenil released ([2]; sample A2 (0.25 g of 1.5% solution in NMP), 6 h): 100.7%
precipitation in bags during the dialysis [2, 11]: no precipitation observed
% flumazenil released ([2]; sample B1 (0.125 g of 3% solution in NMP), 1 h): 92.3%
% flumazenil released ([2]; sample B1 (0.125 g of 3% solution in NMP), 2 h): 99.0%
% flumazenil released ([2]; sample B1 (0.125 g of 3% solution in NMP), 3 h): 100.4%
% flumazenil released ([2]; sample B1 (0.125 g of 3% solution in NMP), 4 h): 101.1%
% flumazenil released ([2]; sample B1 (0.125 g of 3% solution in NMP), 5 h): 100.9%
% flumazenil released ([2]; sample B1 (0.125 g of 3% solution in NMP), 6 h): 101.1%
% flumazenil released ([2]; sample B2 (0.125 g of 3% solution in NMP), 1 h): 80.6%
% flumazenil released ([2]; sample B2 (0.125 g of 3% solution in NMP), 2 h): 92.4%
% flumazenil released ([2]; sample B2 (0.125 g of 3% solution in NMP), 3 h): 97.3%
% flumazenil released ([2]; sample B2 (0.125 g of 3% solution in NMP), 4 h): 99.3%
% flumazenil released ([2]; sample B2 (0.125 g of 3% solution in NMP), 5 h): 100.3%
% flumazenil released ([2]; sample B2 (0.125 g of 3% solution in NMP), 6 h): 100.6%
precipitation in bags during the dialysis ([2]; sample B (0.125 g of 3% solution in NMP), rank A < B < C): precipitation was observed
% flumazenil released ([2]; sample C1 (0.083 g of 4.5% solution in NMP), 1 h): 56.1%
% flumazenil released ([2]; sample C1 (0.083 g of 4.5% solution in NMP), 2 h): 79.3%
% flumazenil released ([2]; sample C1 (0.083 g of 4.5% solution in NMP), 3 h): 92.3%
% flumazenil released ([2]; sample C1 (0.083 g of 4.5% solution in NMP), 4 h): 98.1%
% flumazenil released ([2]; sample C1 (0.083 g of 4.5% solution in NMP), 5 h): 100.1%
% flumazenil released ([2]; sample C1 (0.083 g of 4.5% solution in NMP), 6 h): 100.7%
% flumazenil released ([2]; sample C2 (0.083 g of 4.5% solution in NMP), 1 h): 43.5%
% flumazenil released ([2]; sample C2 (0.083 g of 4.5% solution in NMP), 2 h): 66.1%
% flumazenil released ([2]; sample C2 (0.083 g of 4.5% solution in NMP), 3 h): 82.3%
% flumazenil released ([2]; sample C2 (0.083 g of 4.5% solution in NMP), 4 h): 93.6%
% flumazenil released ([2]; sample C2 (0.083 g of 4.5% solution in NMP), 5 h): 99.2%
% flumazenil released ([2]; sample C2 (0.083 g of 4.5% solution in NMP), 6 h): 101.2%
precipitation in bags during the dialysis ([2]; sample C (0.083 g of 4.5% solution in NMP), rank A < B < C): precipitation was observed
% flumazenil released ([3]; A1 (800 ml dialysate pH 4.0), 1 h): 57.6%
% flumazenil released ([3]; A1 (800 ml dialysate pH 4.0), 2 h): 73.1%
% flumazenil released ([3]; A1 (800 ml dialysate pH 4.0), 4 h): 94.5%
% flumazenil released ([3]; A1 (800 ml dialysate pH 4.0), 6 h): 100.9%
% flumazenil released ([3]; A1 (800 ml dialysate pH 4.0), 24 h): 100.7%
% flumazenil released ([3]; A2 (800 ml dialysate pH 4.0), 1 h): 50.3%
% flumazenil released ([3]; A2 (800 ml dialysate pH 4.0), 2 h): 66.0%
% flumazenil released ([3]; A2 (800 ml dialysate pH 4.0), 4 h): 88.6%
% flumazenil released ([3]; A2 (800 ml dialysate pH 4.0), 6 h): 98.9%
% flumazenil released ([3]; A2 (800 ml dialysate pH 4.0), 24 h): 101.7%
% flumazenil released ([3]; B1 (600 ml dialysate pH 4.0), 1 h): 52.2%
% flumazenil released ([3]; B1 (600 ml dialysate pH 4.0), 2 h): 69.2%
% flumazenil released ([3]; B1 (600 ml dialysate pH 4.0), 4 h): 92.7%
% flumazenil released ([3]; B1 (600 ml dialysate pH 4.0), 6 h): 99.2%
% flumazenil released ([3]; B1 (600 ml dialysate pH 4.0), 24 h): 100.64%
% flumazenil released ([3]; B2 (600 ml dialysate pH 4.0), 1 h): 50.5%
% flumazenil released ([3]; B2 (600 ml dialysate pH 4.0), 2 h): 66.5%
% flumazenil released ([3]; B2 (600 ml dialysate pH 4.0), 4 h): 89.2%
% flumazenil released ([3]; B2 (600 ml dialysate pH 4.0), 6 h): 98.0%
% flumazenil released ([3]; B2 (600 ml dialysate pH 4.0), 24 h): 99.2%
time to reach equilibrium ([3]; dialysate A (800 ml)): around 6 hours
time to reach equilibrium ([3]; dialysate B (600 ml)): around 6 hours
methamphetamine cravings (methamphetamine cravings): substantially reduce methamphetamine cravings
% flumazenil released [4, 5]: 92.9%
% flumazenil released [4, 6]: 100.5%
% flumazenil released [4, 7]: 101.4%
% flumazenil released [4, 8]: 89.8%
% flumazenil released [4, 9]: 100%
% flumazenil released [4, 10]: 101.4%
precipitation during the dialysis [4, 11]: no precipitation was observed
% flumazenil released ([4]; sample B1 (0.25 g of 3.0% solution in NMP), 1 h): 62.1%
% flumazenil released ([4]; sample B1 (0.25 g of 3.0% solution in NMP), 2 h): 74.8%
% flumazenil released ([4]; sample B2 (0.25 g of 3.0% solution in NMP), 1 h): 62.0%
% flumazenil released ([4]; sample B2 (0.25 g of 3.0% solution in NMP), 2 h): 76.3%
precipitation during the dialysis ([4]; sample B (0.25 g of 3.0% solution in NMP)): Precipitation was observed
% flumazenil released ([4]; sample C1 (0.25 g of 4.5% solution in NMP), 1 h): 27.5%
% flumazenil released ([4]; sample C1 (0.25 g of 4.5% solution in NMP), 2 h): 40.4%
% flumazenil released ([4]; sample C2 (0.25 g of 4.5% solution in NMP), 1 h): 29.1%
% flumazenil released ([4]; sample C2 (0.25 g of 4.5% solution in NMP), 2 h): 43.0%
precipitation during the dialysis ([4]; sample C (0.25 g of 4.5% solution in NMP)): Precipitation was observed

— patent US20160120877A1, “PHARMACEUTICAL COMPOSITIONS FOR SUSTAINED DELIVERY OF BENZODIAZEPINE ANTAGONISTS” (priority 2010, published 2016)
